According to patent publication US8642502B2, “Reversible gel-forming compositions for controlled delivery of bioactive substances” (TRGel, LLC, priority 2010, dated 2014):

Tests used:
[1] = Solubility of trans-stilbene oxide in water vs 10% copolymer solution (UV spectra); assay type: physicochemical; settings: in 10% solution of p-MDM/DGDM copolymer
Description: Solutions of trans-stilbene oxide were prepared in water and in a 10% solution of p-MDM/DGDM copolymer.

[2] = Solubility of DM monomers and polymers in solvents; assay type: physicochemical
From the text: The DM monomers as prepared by the methods exemplified in Examples 1-5 above were converted to polymers by the anionic polymerization reaction as illustrated in Reaction Scheme A and the physical properties of homopolymers of differing monomers are presented in Table 1. With reference to Table 1 it should be noted that all of the resulting polymers have very low poly dispersity (Mw/Mn). […] Water-soluble polymers are particularly useful in biological applications such as surface protection from non-specific adsorption. The data also illustrates that the glass transition temperature (Tg) of polymers with alkyl substituents decreases as the alkyl chain length increases. […] The DM polymers wherein R=2-methoxyethyl and R=ethoxy-2-methoxyethyl show lower critical solution temperature (LCST) behavior.

Row | solubility (in words) [2] | Structure (SMILES) | solubility relative to solubility in water [1]
1 | – | c1ccc([C@@H]2O[C@H]2c2ccccc2)cc1 (relative stereo) [trans-stilbene oxide] | improved
2 | soluble in hexane | CCCCCCCCCCO[C@H]1[C@@H]2O[C@@H]2[C@@H]2OC[C@H]1O2 [DDM, 1,6:2,3-dianhydro-4-O-decyl-β-D-mannopyranose] | –
3 | soluble in water | COCCOC1C2COC(O2)C2OC12 [MEDM, 1,6:2,3-dianhydro-4-O-(2-methoxyethyl)-β-D-mannopyranose] | –
